± gives the standard deviation of the averaged measurements.
Tests used:
Assay in all cases: level (log10 ratio to DMSO vehicle control); higher = higher biomarker level / cell amount than vehicle control
Methotrexate = compound: CN(Cc1cnc2nc(N)nc(N)c2n1)c1ccc(C(=O)N[C@@H](CCC(=O)O)C(=O)O)cc1 [Methotrexate]; conditions: in DMSO
Description: (§1)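 BioMAP Diversity Plus panel of 12 human primary cell co-culture systems (3C, 4H, LPS, SAg, BT, BF4T, BE3C, CASM3C, HDF3CGF, KF3CT, MyoF, Mphg). Compounds were added 1 h before stimulation and left for 24 h (MyoF 48 h; BT 72 h for soluble read-outs or 6 d for IgG). Biomarkers were read by ELISA, cytotoxicity by SRB, PBMC viability and proliferation by Alamar Blue. Each well value was divided by the mean of 8 DMSO control wells on the same plate and log10 transformed; duplicate blinded samples were tested at 4 concentrations.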

Perfluorooctanoic acid = compound: O=C(O)C(F)(F)C(F)(F)C(F)(F)C(F)(F)C(F)(F)C(F)(F)C(F)(F)F [Perfluorooctanoic acid]; conditions: in DMSO
Description: as §1

[1] = compound: O=P(O)(O)CCC(F)(F)C(F)(F)C(F)(F)C(F)(F)C(F)(F)C(F)(F)F [2-(Perfluorohexyl)ethylphosphonic acid]; conditions: in DMSO
Description: as §1

[2] = compound: O=S(=O)(OCC(F)(F)F)C(F)(F)C(F)(F)C(F)(F)C(F)(F)F [2,2,2-Trifluoroethyl perfluorobutanesulfonate]; conditions: in DMSO
Description: as §1

[3] = compound: OCC(F)(F)C(F)(F)C(F)(F)C(F)(F)C(F)(F)C(F)(F)C(F)(F)C(F)(F)C(F)(F)C(F)(F)C(F)(F)F [11:1 Fluorotelomer alcohol]; conditions: in DMSO
Description: as §1

[4] = compound: OCCCC(F)(F)C(F)(F)C(F)(F)C(F)(F)C(F)(F)C(F)(F)C(F)(F)C(F)(F)F [3-(Perfluorooctyl)propanol]; conditions: 6700 nM; in DMSO
Description: as §1

[5] = compound: OCCCCC(F)(F)C(F)(F)C(F)(F)C(F)(F)F [4:4 Fluorotelomer alcohol]; conditions: in DMSO
Description: as §1

| Test System | level (log10) (Methotrexate; 1500 nM) | level (log10) (Methotrexate; 4400 nM) | level (log10) (Methotrexate; 13000 nM) | level (log10) (Methotrexate; 40000 nM) | level (log10) (Perfluorooctanoic acid; 6700 nM) | level (log10) (Perfluorooctanoic acid; 20000 nM) | level (log10) (Perfluorooctanoic acid; 60000 nM) | level (log10) ([1]; 6700 nM) | level (log10) ([1]; 20000 nM) | level (log10) ([1]; 60000 nM) | level (log10) ([2]; 6700 nM) | level (log10) ([2]; 20000 nM) | level (log10) ([2]; 60000 nM) | level (log10) ([3]; 1100 nM) | level (log10) ([3]; 3300 nM) | level (log10) ([3]; 10000 nM) | level (log10) [4] | level (log10) ([5]; 6700 nM) | level (log10) ([5]; 20000 nM) | level (log10) ([5]; 60000 nM) |
| --- | --- | --- | --- | --- | --- | --- | --- | --- | --- | --- | --- | --- | --- | --- | --- | --- | --- | --- | --- | --- |
| LPS:CD62E/E-Selectin | -0.01 ± 0.024 | -0.0185 ± 0.0021 | 0.005 ± 0.0014 | 0.005 ± 0.025 | 0.009 ± 0.017 | -0.01 ± 0.02 | 0.029 ± 0.016 | -0.0005 ± 0.015 | -0.004 ± 0.011 | 0.0465 ± 0.012 | 0.0025 ± 0.019 | -0.004 ± 0.02 | -0.0795 ± 0.043 | 0.016 ± 0.0085 | 0.01 ± 0.0099 | 0.015 ± 0.014 | -0.148 ± 0.079 | -0.0015 ± 0.033 | -0.0135 ± 0.028 | -0.012 ± 0.0099 |
| BT:PBMC Cytotoxicity | -0.037 ± 0.0071 | -0.0455 ± 0.0021 | -0.0635 ± 0.0078 | -0.049 ± 0.035 | -0.001 ± 0.028 | 0.0565 ± 0.013 | 0.105 ± 0.033 | 0.0025 ± 0.053 | 0.0325 ± 0.021 | 0.07 ± 0.047 | 0.0225 ± 0.022 | 0.0235 ± 0.056 | 0.053 ± 0.062 | -0.073 ± 0.044 | -0.09 ± 0.038 | -0.0775 ± 0.019 | 0.021 ± 0.028 | -0.0265 ± 0.0064 | -0.035 ± 0.0014 | -0.0195 ± 0.064 |
| SAg:CD69 | -0.001 ± 0.0085 | -0.033 ± 0.024 | -0.0185 ± 0.061 | -0.003 ± 0.04 | -0.0095 ± 0.0035 | -0.0265 ± 0.011 | -0.0355 ± 0.016 | -0.004 ± 0.025 | -0.008 ± 0.02 | 0.009 ± 0.03 | -0.0025 ± 0.0092 | -0.0175 ± 0.025 | -0.049 ± 0.042 | -0.0355 ± 0.021 | -0.0425 ± 0.029 | -0.038 ± 0.023 | -0.036 ± 0.014 | 0.009 ± 0.0057 | -0.002 ± 0.0028 | 0.001 ± 0.02 |
| BF4T:CD90 | 0.001 ± 0.0014 | -0.0145 ± 0.0035 | -0.006 ± 0.016 | 0.0235 ± 0.012 | -0.0095 ± 0.022 | -0.006 ± 0.0028 | -0.0105 ± 0.019 | -0.0185 ± 0.023 | -0.0165 ± 0.005 | -0.008 ± 0.031 | 0.004 ± 0.0099 | -0.007 ± 0.023 | -0.009 ± 0.011 | 0.0025 ± 0.011 | -0.0025 ± 0.011 | 0.002 ± 0.0042 | -0.0195 ± 0.018 | -0.009 ± 0.013 | -0.0155 ± 0.012 | 0.0005 ± 0.018 |
| BF4T:MMP-9 | 0.0265 ± 0.012 | -0.0075 ± 0.029 | 0.014 ± 0.0099 | 0.016 | -0.006 ± 0.0057 | 0.02 ± 0.013 | 0.0215 ± 0.013 | -0.0155 ± 0.00071 | -0.0015 ± 0.0078 | 0.018 ± 0.035 | -0.017 ± 0.0028 | -0.0145 ± 0.029 | -0.0225 ± 0.0064 | -0.025 ± 0.03 | -0.02 ± 0.0071 | -0.03 ± 0.0057 | 0.0155 ± 0.057 | 0.0045 ± 0.013 | -0.0015 ± 0.013 | 0.0275 ± 0.06 |
| BE3C:EGFR | 0.023 ± 0.028 | 0.002 ± 0.013 | 0.0085 ± 0.0092 | 0.0155 ± 0.037 | -0.0165 ± 0.012 | -0.025 ± 0.011 | -0.018 ± 0.037 | -0.0045 ± 0.0021 | -0.015 ± 0.014 | 0.0005 ± 0.022 | 0.006 ± 0.0028 | 0.007 | 0.0025 ± 0.00071 | -0.022 ± 0.011 | -0.003 ± 0.018 | -0.019 ± 0.0099 | -0.018 ± 0.0071 | 0.025 ± 0.0085 | 0.022 ± 0.038 | 0.02 ± 0.065 |
| BF4T:CCL2/MCP-1 | 0.0115 ± 0.022 | 0.0135 ± 0.0035 | -0.022 ± 0.0028 | 0.0055 ± 0.029 | 0.0265 ± 0.018 | 0.015 ± 0.013 | -0.0835 ± 0.039 | 0.001 ± 0.0028 | 0.0015 ± 0.023 | -0.009 ± 0.0028 | 0.024 ± 0.0028 | 0.0125 ± 0.005 | 0.017 ± 0.021 | 0.018 ± 0.042 | 0.0235 ± 0.021 | 0.031 ± 0.023 | -0.0265 ± 0.0092 | 0.0115 ± 0.044 | 0.007 ± 0.024 | 0.048 ± 0.099 |
| BE3C:CXCL11/I-TAC | 0.017 ± 0.027 | 0.0135 ± 0.029 | 0.0225 ± 0.015 | 0.016 ± 0.031 | -0.0225 ± 0.032 | -0.0225 ± 0.029 | -0.0095 ± 0.016 | -0.0205 ± 0.0078 | -0.0235 ± 0.0064 | -0.0415 ± 0.032 | 0.017 ± 0.0057 | -0.003 ± 0.0085 | 0.006 ± 0.0085 | -0.0085 ± 0.018 | -0.025 ± 0.024 | -0.005 ± 0.013 | -0.003 ± 0.011 | -0.013 ± 0.0028 | -0.0125 ± 0.00071 | -0.0025 ± 0.015 |
| SAg:CD38 | 0.037 ± 0.0099 | -0.0175 ± 0.005 | 0.031 ± 0.0085 | 0.006 ± 0.028 | -0.008 ± 0.0085 | -0.012 ± 0.023 | -0.0405 ± 0.0064 | 0.018 | 0.0025 ± 0.016 | -0.0055 ± 0.011 | -0.0185 ± 0.0092 | -0.012 ± 0.0071 | -0.0475 ± 0.032 | -0.0115 ± 0.084 | -0.014 ± 0.073 | 0.0035 ± 0.042 | -0.017 ± 0.016 | -0.001 ± 0.028 | -0.0075 ± 0.018 | -0.0165 ± 0.023 |
| BF4T:Keratin 8/18 | 0.005 ± 0.038 | -0.0385 ± 0.005 | -0.006 ± 0.054 | 0.0155 ± 0.028 | -0.0045 ± 0.012 | -0.0025 ± 0.0092 | 0.0025 ± 0.022 | -0.0045 ± 0.015 | -0.0065 ± 0.012 | 0.0105 ± 0.022 | 0.002 ± 0.016 | -0.0025 ± 0.016 | -0.0335 ± 0.0078 | 0.0025 ± 0.026 | -0.009 ± 0.03 | -0.0075 ± 0.025 | 0.021 ± 0.051 | 0.012 ± 0.0028 | -0.001 ± 0.0014 | 0.009 ± 0.034 |
| 4H:CD87/uPAR | 0.0245 ± 0.029 | -0.014 ± 0.031 | -0.0105 ± 0.033 | 0.0185 ± 0.03 | -0.0695 ± 0.053 | -0.0395 ± 0.1 | -0.083 ± 0.048 | -0.0345 ± 0.018 | -0.0165 ± 0.015 | -0.0495 ± 0.011 | 0.0005 ± 0.011 | 0.001 ± 0.0099 | -0.0095 ± 0.039 | -0.0285 ± 0.037 | -0.0415 ± 0.028 | 0 ± 0.059 | -0.0615 ± 0.025 | -0.0385 ± 0.029 | -0.044 ± 0.021 | -0.0195 ± 0.013 |
| SAg:CD40 | -0.02 ± 0.0042 | -0.0525 ± 0.018 | -0.0055 ± 0.079 | -0.0305 ± 0.088 | 0.002 ± 0.013 | -0.017 ± 0.014 | -0.0415 ± 0.012 | 0.007 ± 0.0028 | 0.0015 ± 0.00071 | -0.026 ± 0.0099 | -0.0165 ± 0.018 | -0.019 ± 0.017 | -0.0635 ± 0.049 | -0.038 ± 0.024 | -0.068 | -0.0685 ± 0.042 | -0.029 ± 0.025 | 0.01 ± 0.016 | 0.014 ± 0.0042 | 0.005 ± 0.0042 |

— the supplement of paper PMC10331698
